Test results from the supplement of paper PMC5844555.

How the values were obtained:
Experiment in all cases: 3' UTR reporter interaction score (median-centred robust z-score of log2 firefly/Renilla activity); higher = less repression of the 3' UTR reporter
Details in all cases: HEK293T; 48 h
MYT1L = test system: MYT1L
Method in brief: (§1)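 Firefly and Renilla luciferase activities were read 48 h post-transfection in HEK293T cells (10,000/well, 96-well plates). The cells had received 100 ng firefly luc2P reporter bearing the gene's 3' UTR, 20 ng Renilla pRL-TK control and 2.5 pmol miRNA mimic via DharmaFECT Duo. The interaction score, where more negative means interaction, is a per-plate robust z-score (median, median absolute deviation) of the log firefly/Renilla ratio, median-centred per miRNA and averaged over at least two independent screens.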

PHOX2B = test system: PHOX2B
Method in brief: as §1

TP53 = test system: TP53
Method in brief: as §1

MYC = test system: MYC
Method in brief: as §1

FBXW7 = test system: FBXW7
Method in brief: as §1

MYB = test system: MYB
Method in brief: as §1

RB1 = test system: RB1
Method in brief: as §1

ZEB2 = test system: ZEB2
Method in brief: as §1

NOTCH1 = test system: NOTCH1
Method in brief: as §1

EZH2 = test system: EZH2
Method in brief: as §1

HRAS = test system: HRAS
Method in brief: as §1

BRCA2 = test system: BRCA2
Method in brief: as §1

PHF6 = test system: PHF6
Method in brief: as §1

MYCN = test system: MYCN
Method in brief: as §1

Sequence | 3' UTR reporter interaction score (MYT1L) | 3' UTR reporter interaction score (PHOX2B) | 3' UTR reporter interaction score (TP53) | 3' UTR reporter interaction score (MYC) | 3' UTR reporter interaction score (FBXW7) | 3' UTR reporter interaction score (MYB) | 3' UTR reporter interaction score (RB1) | 3' UTR reporter interaction score (ZEB2) | 3' UTR reporter interaction score (NOTCH1) | 3' UTR reporter interaction score (EZH2) | 3' UTR reporter interaction score (HRAS) | 3' UTR reporter interaction score (BRCA2) | 3' UTR reporter interaction score (PHF6) | 3' UTR reporter interaction score (MYCN)
UUCACCACCUUCUCCACCCAGC | 0.639 | 0.365 | -0.656 | 0.119 | -2.88 | 0.974 | 0.874 | 1.21 | -0.224 | 0.425 | 0.00141 | -0.718 | -0.605 | 0.95
UUCCCUUUGUCAUCCUAUGCCU | -0.655 | -5.45 | -0.382 | -0.0967 | -1.78 | 0.747 | 0.112 | 0.832 | -0.728 | 0.404 | -0.0998 | 0.265 | 2.55 | 0.146
UUCCCUUUGUCAUCCUUCGCCU | -0.268 | -4.93 | -0.355 | -0.168 | -1.31 | 0.781 | 0.903 | -0.675 | -0.19 | 0.0327 | -0.327 | 0.539 | 0.344 | 0.0207
UUCUCCAAAAGAAAGCACUUUCUG | 2.07 | 1.93 | -0.447 | -0.642 | -0.49 | -0.561 | 1.42 | 1.36 | -0.152 | 0.815 | 0.348 | 0.931 | 1.85 | -0.288
UUGAGAAUGAUGAAUCAUUAGG | -0.0444 | -0.12 | 0.335 | 0.0578 | -0.3 | 0.0167 | -0.111 | -0.412 | 0.0298 | -0.195 | 1.09 | 0.13 | -1.78 | -0.554
UUGCAUAGUCACAAAAGUGA | -0.0799 | 0.0715 | 0.904 | 0.279 | 1.37 | -1.85 | -0.308 | -2.2 | 0.184 | 0.179 | -0.0974 | -0.381 | -0.0278 | 0.143
UUGCAUAUGUAGGAUGUCCCAU | -1.22 | -1.16 | 0.961 | 0.476 | 1.23 | -1.75 | -0.812 | -4.28 | 0.153 | 0.731 | 0.995 | 0.216 | -1.76 | -0.178
UUGGCCACAAUGGGUUAGAAC | 1.36 | 0.306 | -0.693 | 0.316 | -5.44 | 0.316 | 0.342 | 0.409 | -0.0688 | -1.06 | -0.0679 | 0.035 | 1.18 | 0.113
UUGGUCCCCUUCAACCAGCUA | 0.425 | -0.834 | -0.692 | 0.62 | 1.01 | -0.0299 | -0.167 | -0.0455 | -0.864 | 1.2 | 1.24 | -0.159 | -1.46 | 0.0097
UUGGUCCCCUUCAACCAGCUGU | 0.5 | -0.898 | -1.45 | 0.174 | 1 | 0.254 | -0.063 | -0.135 | -0.968 | 1.28 | 1.24 | 0.152 | -1.13 | 0.117
UUGUACAUGGUAGGCUUUCAUU | -0.141 | 0.723 | -0.89 | 1.21 | -0.171 | 1.15 | 0.635 | -1.84 | 0.647 | 0.0583 | 0.289 | -0.0352 | -1.11 | 1.27
UUGUGCUUGAUCUAACCAUGU | -0.134 | -1.73 | -0.638 | 0.0929 | 0.164 | 0.205 | 0.758 | -0.746 | 0.182 | 0.222 | -0.276 | 0.391 | 0.117 | -0.328
UUUAACAUGGGGGUACCUGCUG | -0.244 | -1.08 | -0.238 | -0.0461 | 0.198 | -1.1 | 0.395 | -0.448 | -0.514 | 0.537 | 0.621 | 1.26 | 0.182 | 0.0587
UUUAGGAUAAGCUUGACUUUUG | 0.523 | -0.958 | 0.0255 | -0.602 | 1.12 | 0.0477 | -0.349 | -2.69 | -0.42 | 0.299 | -0.108 | 0.711 | -0.597 | -0.873
UUUCCAUAGGUGAUGAGUCAC | -0.218 | -0.505 | -0.699 | 0.823 | -0.836 | 1.55 | 0.93 | -0.252 | -0.326 | -3.48 | 0.654 | -0.419 | -0.367 | 1.24
UUUCCUAUGCAUAUACUUCUUU | 1.98 | -0.604 | -0.504 | 0.151 | 0.0806 | 0.476 | 0.265 | 0.911 | -2.15 | -0.62 | -0.802 | 0.202 | -0.444 | 0.517
UUUGGCAAUGGUAGAACUCACA | 0.203 | 0.438 | 0.0472 | -0.026 | -2.86 | -1.17 | 0.469 | 0.837 | -0.441 | 0.322 | -0.139 | -0.0444 | -0.697 | -0.0764
UUUGUUCGUUCGGCUCGCGUGA | -0.751 | 0.0504 | 0.275 | 0.135 | -0.0777 | -0.574 | -0.809 | 0.164 | 0.323 | 0.52 | -0.635 | 1.05 | 1.7 | -0.313
UUUUGCACCUUUUGGAGUGAA | -0.182 | -0.86 | 0.767 | 0.393 | -3.44 | 1 | -1.86 | -4.16 | 1.27 | -0.000424 | -0.429 | 0.467 | 0.706 | 0.905
UUUUUGCGAUGUGUUCCUAAUA | 0.157 | 0.492 | 0.414 | 0.66 | -2.28 | 0.165 | -2.29 | -2.41 | 0.568 | 1.27 | 0.633 | 0.151 | 0.21 | -0.818
